In test [1] the target is T1, Nav 1.7 (Homo sapiens (Human), UniProt Q15858). In words: Nav 1.7 IWQ in vitro assay (IonWorks Quattro population patch-clamp). It counts as cell-based. The following applies: 293 cells stably transfected with Nav 1.7; second part of table; read-out: Nav1.7 IWQ IC50 IP. The procedure, abridged:
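HEK293 cells stably expressing Nav 1.7, recorded by automated population patch-clamp with a train of depolarizations producing increasing inactivation. Single compound concentration added during 3–8 min unclamped period, then same protocol repeated. Leak-corrected current at 26th pulse to −20 mV gave percent block (duplicate); IC50 fitted from concentration–block curves.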
(The patch-clamp technique gives a direct electrical read-out from membranes.)

The target in test [2] is T1, Nav 1.7. In words: Nav 1.7 in vitro PX assay (PatchXpress whole cell voltage clamp). The following applies: 293 cells, human Nav1.7, partially inactivated state; read-out: Nav1.7 PX IC50 IP. It counts as cell-based. The essentials: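 HEK293 cells stably expressing human Nav1.7, whole-cell voltage clamp on PatchXpress, held at potential giving 20–50% inactivation; current elicited by 20 msec pulse to −10 mV.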

T1 sequence (Q15858 whole entry): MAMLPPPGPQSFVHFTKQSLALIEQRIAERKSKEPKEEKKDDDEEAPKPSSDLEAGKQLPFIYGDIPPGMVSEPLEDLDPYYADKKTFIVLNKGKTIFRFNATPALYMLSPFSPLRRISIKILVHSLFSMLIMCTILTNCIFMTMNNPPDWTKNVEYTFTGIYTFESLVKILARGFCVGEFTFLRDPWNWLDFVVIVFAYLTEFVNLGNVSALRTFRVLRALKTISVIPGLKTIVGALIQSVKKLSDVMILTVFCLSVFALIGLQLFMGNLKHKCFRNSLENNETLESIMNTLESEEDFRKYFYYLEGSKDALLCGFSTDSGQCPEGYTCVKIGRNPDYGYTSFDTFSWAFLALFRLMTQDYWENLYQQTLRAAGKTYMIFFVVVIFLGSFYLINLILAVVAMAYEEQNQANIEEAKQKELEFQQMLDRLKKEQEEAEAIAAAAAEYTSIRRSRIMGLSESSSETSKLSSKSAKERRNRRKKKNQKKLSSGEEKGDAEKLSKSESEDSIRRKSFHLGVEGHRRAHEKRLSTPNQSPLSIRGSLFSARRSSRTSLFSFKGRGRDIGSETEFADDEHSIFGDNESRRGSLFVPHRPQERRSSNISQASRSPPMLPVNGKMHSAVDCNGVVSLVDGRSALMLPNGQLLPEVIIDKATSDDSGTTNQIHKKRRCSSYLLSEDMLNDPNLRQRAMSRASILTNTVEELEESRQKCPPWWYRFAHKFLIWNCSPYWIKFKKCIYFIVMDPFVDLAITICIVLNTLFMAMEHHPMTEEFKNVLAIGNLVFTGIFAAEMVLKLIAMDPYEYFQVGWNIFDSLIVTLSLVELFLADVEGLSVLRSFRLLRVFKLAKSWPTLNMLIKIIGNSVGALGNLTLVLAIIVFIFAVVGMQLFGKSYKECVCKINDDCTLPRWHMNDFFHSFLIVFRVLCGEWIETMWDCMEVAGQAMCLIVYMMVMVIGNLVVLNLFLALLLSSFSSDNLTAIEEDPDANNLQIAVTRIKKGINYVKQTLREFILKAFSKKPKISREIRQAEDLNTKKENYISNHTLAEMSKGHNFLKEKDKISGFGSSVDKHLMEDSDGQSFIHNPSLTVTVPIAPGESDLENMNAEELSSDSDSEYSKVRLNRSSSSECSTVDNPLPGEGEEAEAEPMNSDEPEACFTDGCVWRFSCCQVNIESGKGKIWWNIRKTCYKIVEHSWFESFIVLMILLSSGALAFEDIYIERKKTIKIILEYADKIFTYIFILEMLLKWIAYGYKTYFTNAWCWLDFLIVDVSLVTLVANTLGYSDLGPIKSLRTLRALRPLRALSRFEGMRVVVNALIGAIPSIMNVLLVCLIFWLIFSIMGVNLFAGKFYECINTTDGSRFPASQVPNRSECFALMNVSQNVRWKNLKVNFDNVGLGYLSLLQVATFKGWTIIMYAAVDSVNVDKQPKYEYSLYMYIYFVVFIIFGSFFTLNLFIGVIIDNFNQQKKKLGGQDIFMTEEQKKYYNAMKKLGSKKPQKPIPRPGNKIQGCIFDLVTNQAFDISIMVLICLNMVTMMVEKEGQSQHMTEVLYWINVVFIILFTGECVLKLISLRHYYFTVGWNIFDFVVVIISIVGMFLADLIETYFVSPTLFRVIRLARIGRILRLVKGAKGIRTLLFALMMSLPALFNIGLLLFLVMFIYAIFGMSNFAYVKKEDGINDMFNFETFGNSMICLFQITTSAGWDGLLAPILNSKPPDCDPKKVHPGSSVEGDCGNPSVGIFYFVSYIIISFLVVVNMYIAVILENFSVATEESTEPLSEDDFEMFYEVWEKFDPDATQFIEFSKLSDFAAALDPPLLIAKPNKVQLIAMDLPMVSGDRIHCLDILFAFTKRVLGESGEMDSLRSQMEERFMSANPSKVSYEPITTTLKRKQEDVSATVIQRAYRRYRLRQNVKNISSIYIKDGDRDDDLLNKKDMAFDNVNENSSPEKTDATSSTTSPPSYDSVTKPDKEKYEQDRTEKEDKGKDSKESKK

On to `O=S(=O)(Nc1nccs1)c1ccc2c(-c3ccc(C(F)(F)F)cc3-n3ccnc3)nccc2c1` [Example 229, 1-(2-(1H-IMIDAZOL-1-YL)-4-(TRIFLUOROMETHYL)PHENYL)-N-(THIAZOL-2-YL)ISOQUINOLINE-6-SULFONAMIDE], for which the IC50 at Nav 1.7 [1] was 10 nM; on Nav 1.7 [2], 420 nM.
As to `O=S(=O)(Nc1nccs1)c1ccc2c(-c3ccc(C(F)(F)F)cc3Cl)ccnc2c1` [Example 278, 4-(2-CHLORO-4-(TRIFLUOROMETHYL)PHENYL)-N-(THIAZOL-2-YL)QUINOLINE-7-SULFONAMIDE], the IC50 was found to be 220 nM at Nav 1.7 [1] and 2020 nM at Nav 1.7 [2].
Turning to `CNc1cc2cc(S(=O)(=O)Nc3nccs3)ccc2c(-c2ccc(C(F)(F)F)cc2OC)n1` [Example 222, 1-(2-METHOXY-4-(TRIFLUOROMETHYL)PHENYL)-3-(METHYLAMINO)-N-(THIAZOL-2-YL)ISOQUINOLINE-6-SULFONAMIDE], the IC50 was 20 nM at Nav 1.7 [1] and 905 nM on Nav 1.7 [2].
The matching figures for `O=S(=O)(Nc1nccs1)c1ccc2c(-c3ccc(C(F)(F)F)cc3F)nccc2c1` [Example 228, 1-(2-FLUORO-4-(TRIFLUOROMETHYL)PHENYL)-N-(THIAZOL-2-YL)ISOQUINOLINE-6-SULFONAMIDE]: 110 nM and 1520 nM.
On to `COc1cc(Cl)ccc1-c1nccc2cc(S(=O)(=O)Nc3nccs3)ccc12` [Example 201, 1-(4-CHLORO-2-METHOXYPHENYL)-N-(THIAZOL-2-YL)ISOQUINOLINE-6-SULFONAMIDE], for which the IC50 at Nav 1.7 [1] was 20 nM; on Nav 1.7 [2], 315 nM.
On the same counts, the results for `COc1cc(C(F)(F)F)ccc1-c1nccc2cc(S(=O)(=O)Nc3ncc(C#N)s3)ccc12` [Example 197, N-(5-CYANOTHIAZOL-2-YL)-1-(2-METHOXY-4-(TRIFLUOROMETHYL)PHENYL)ISOQUINOLINE-6-SULFONAMIDE] are 2930 nM and 3060 nM.
As for `COc1ccccc1-c1nccc2cc(S(=O)(=O)Nc3ccncn3)ccc12` [Example 140, 1-(2-METHOXYPHENYL)-N-(PYRIMIDIN-4-YL)ISOQUINOLINE-6-SULFONAMIDE], the IC50 turned out to be 90 nM on Nav 1.7 [1] and 10700 nM at Nav 1.7 [2].
The matching figures for `O=S(=O)(Nc1nccs1)c1ccc2c(-c3ccc(C(F)(F)F)cc3Br)nccc2c1` [Example 235, 1-(2-BROMO-4-(TRIFLUOROMETHYL)PHENYL)-N-(THIAZOL-2-YL)ISOQUINOLINE-6-SULFONAMIDE]: 50 nM and 150 nM.
Take `N#Cc1cccc(COc2nccc3cc(S(=O)(=O)Nc4ccncn4)ccc23)c1` [Example 137, 1-((3-CYANOBENZYL)OXY)-N-(PYRIMIDIN-4-YL)ISOQUINOLINE-6-SULFONAMIDE]: the IC50 is 3910 nM on Nav 1.7 [1] and greater than 30000 nM on Nav 1.7 [2].
The matching figures for `COc1cc(Cl)ccc1-c1ncc(F)c2cc(S(=O)(=O)Nc3nccs3)ccc12` [Example 215, 1-(4-CHLORO-2-METHOXYPHENYL)-4-FLUORO-N-(THIAZOL-2-YL)ISOQUINOLINE-6-SULFONAMIDE]: 20 nM and 86 nM.
On the same counts, the results for `COc1cc(OC(F)(F)F)ccc1-c1nccc2cc(S(=O)(=O)Nc3ccncn3)ccc12` [Example 153, 1-(2-METHOXY-4-(TRIFLUOROMETHOXY)PHENYL)-N-(PYRIMIDIN-4-YL)ISOQUINOLINE-6-SULFONAMIDE] are 20 nM and 914 nM.
`CC1CCCN1c1cccc2cc(S(=O)(=O)Nc3ncns3)ccc12` (centres unmarked) [Example 91]: the IC50 at Nav 1.7 [1] is 270 nM; at Nav 1.7 [2], 1470 nM.
Take `O=S(=O)(Nc1ncns1)c1ccc2c(C3CCCN3c3ccccn3)cccc2c1` (centres unmarked) [Example 96]: the values for the IC50 on Nav 1.7 [1] and at Nav 1.7 [2] were 80 nM and 323 nM, respectively.
The matching figures for `O=S(=O)(Nc1nccs1)c1ccc2c(N3CCCC3c3ccccc3)nccc2c1` (centres unmarked) [Example 237, 1-(2-PHENYLPYRROLIDIN-1-YL)-N-(THIAZOL-2-YL)ISOQUINOLINE-6-SULFONAMIDE]: 740 nM and 1230 nM.
On the same counts, the results for `O=S(=O)(Nc1nccs1)c1ccc2c(N3CCC[C@@H]3c3ccccc3)nccc2c1` [Example 238, (R)-1-(2-phenylpyrrolidin-1-yl)-N-(thiazol-2-yl)isoquinoline-6-sulfonamide] are 140 nM and 770 nM.
The matching figures for `COc1cc(C(F)(F)F)ccc1-c1ncnc2cc(S(=O)(=O)Nc3ncns3)ccc12` [Example 265, 4-(2-METHOXY-4-(TRIFLUOROMETHYL)PHENYL)-N-(1,2,4-THIADIAZOL-5-YL)QUINAZOLINE-7-SULFONAMIDE]: 20 nM and 150 nM.
As to `C[C@@H](COc1ccc(Cl)cc1)Oc1nccc2cc(S(=O)(=O)Nc3ccncn3)ccc12` [Example 131, (S)-1-((1-(4-CHLOROPHENOXY)PROPAN-2-YL)OXY)-N-(PYRIMIDIN-4-YL)ISOQUINOLINE-6-SULFONAMIDE], the IC50 was 810 nM on Nav 1.7 [1] and 4190 nM on Nav 1.7 [2].
The matching figures for `O=S(=O)(Nc1ncc(F)s1)c1ccc2c(-c3ccc(C(F)(F)F)cc3-n3ccnc3)cccc2c1` [Example 112]: 100 nM and 459 nM.
On the same counts, the results for `O=S(=O)(Nc1ccncn1)c1ccc2c(OCc3nccn3Cc3ccc(Cl)cc3)nccc2c1` [Example 133, 1-((1-(4-CHLOROBENZYL)-1H-IMIDAZOL-2-YL)METHOXY)-N-(PYRIMIDIN-4-YL)ISOQUINOLINE-6-SULFONAMIDE] are 1830 nM and 34100 nM.
On the same counts, the results for `COc1cc(C(F)(F)F)ccc1-c1c(N)cnc2cc(S(=O)(=O)Nc3nccs3)ccc12` [Example 283, 3-AMINO-4-(2-METHOXY-4-(TRIFLUOROMETHYL)PHENYL)-N-(THIAZOL-2-YL)QUINOLINE-7-SULFONAMIDE] are 10 nM and 210 nM.
With `COc1cc(C2CC2)ccc1-c1cccc2cc(S(=O)(=O)Nc3ccncn3)ccc12` [Example 125], the IC50 was found to be 40 nM on Nav 1.7 [1] and 631 nM on Nav 1.7 [2].
As for `COc1cc(F)ccc1-c1nncc2cc(S(=O)(=O)Nc3nccs3)ccc12` [Example 250, 1-(4-FLUORO-2-METHOXYPHENYL)-N-(THIAZOL-2-YL)PHTHALAZINE-6-SULFONAMIDE], the IC50 on Nav 1.7 [1] came out at 50 nM; on Nav 1.7 [2] it was 1150 nM.
For the molecule `COc1ccccc1-c1ccnc2cc(S(=O)(=O)Nc3nccs3)ccc12` [Example 277, 4-(2-METHOXYPHENYL)-N-(THIAZOL-2-YL)QUINOLINE-7-SULFONAMIDE], the figures for the IC50 at Nav 1.7 [1] and on Nav 1.7 [2] were 70 nM and 340 nM, respectively.
Consider `COc1ccc(OC)c(-c2nccc3cc(S(=O)(=O)Nc4ccncn4)ccc23)c1` [Example 147, 1-(2,5-DIMETHOXYPHENYL)-N-(PYRIMIDIN-4-YL)ISOQUINOLINE-6-SULFONAMIDE], for which the IC50 on Nav 1.7 [1] was found to be 130 nM; at Nav 1.7 [2], 5820 nM.
As for `O=S(=O)(Nc1nccs1)c1ccc2c(-c3ccn(-c4ccccc4)c3)nccc2c1` [Example 207, 1-(1-PHENYL-1H-PYRROL-3-YL)-N-(THIAZOL-2-YL)ISOQUINOLINE-6-SULFONAMIDE 2,2,2-TRIFLUOROACETATE], the IC50 on Nav 1.7 [1] turned out to be 2100 nM; at Nav 1.7 [2] it was 7290 nM.
On the same counts, the results for `COc1ccc(OC(F)(F)F)cc1-c1nccc2cc(S(=O)(=O)Nc3ccncn3)ccc12` [Example 151, 1-(2-METHOXY-5-(TRIFLUOROMETHOXY)PHENYL)-N-(PYRIMIDIN-4-YL)ISOQUINOLINE-6-SULFONAMIDE] are 30 nM and 1020 nM.
With `COc1ccccc1-c1ncc(F)c2cc(S(=O)(=O)Nc3nccs3)ccc12` [Example 211, 4-FLUORO-1-(2-METHOXYPHENYL)-N-(THIAZOL-2-YL)ISOQUINOLINE-6-SULFONAMIDE], the IC50 on Nav 1.7 [1] worked out at 10 nM; on Nav 1.7 [2] it was 251 nM.
As for `COc1cc(C#N)ccc1-c1ncnc2cc(S(=O)(=O)Nc3nccs3)ccc12` [Example 269, 4-(4-CYANO-2-METHOXYPHENYL)-N-(THIAZOL-2-YL)QUINAZOLINE-7-SULFONAMIDE], the results for the IC50 on Nav 1.7 [1] and on Nav 1.7 [2] were 20 nM and 470 nM, respectively.
With `NC(=O)c1cc(C(F)(F)F)ccc1-c1nccc2cc(S(=O)(=O)Nc3nccs3)ccc12` [Example 227, 2-(6-(N-(THIAZOL-2-YL)SULFAMOYL)ISOQUINOLIN-1-YL)-5-(TRIFLUOROMETHYL)BENZAMIDE], the results for the 50% inhibitory concentration (IC50) on Nav 1.7 [1] and on Nav 1.7 [2] were 110 nM and 2270 nM, respectively.
On to `Cc1c(-c2nccc3cc(S(=O)(=O)Nc4nccs4)ccc23)cnn1-c1ccccc1` [Example 208, 1-(5-METHYL-1-PHENYL-1H-PYRAZOL-4-YL)-N-(THIAZOL-2-YL)ISOQUINOLINE-6-SULFONAMIDE 2,2,2-TRIFLUOROACETATE], for which the IC50 at Nav 1.7 [1] worked out at 2140 nM; at Nav 1.7 [2] it was 27500 nM.
On the same counts, the results for `COc1cc(C(F)(F)F)ccc1-c1cccc2cc(S(=O)(=O)Nc3ncc(F)s3)ccc12` [Example 107] are 330 nM and 3320 nM.
On the same counts, the results for `COc1cc(C#N)ccc1-c1ncc(F)c2cc(S(=O)(=O)Nc3ccncn3)ccc12` [Example 218, 1-(4-cyano-2-methoxyphenyl)-4-fluoro-N-(pyrimidin-4-yl)isoquinoline-6-sulfonamide] are 70 nM and 4630 nM.
On to `O=S(=O)(Nc1ncns1)c1ccc2c(NCc3ccccc3)cccc2c1` [Example 99, 5-(benzylamino)-N-(1,2,4-thiadiazol-5-yl)naphthalene-2-sulfonamide], for which the IC50 amounted to 1180 nM on Nav 1.7 [1] and 4450 nM at Nav 1.7 [2].
On the same counts, the results for `COC(=N)c1cc(C(F)(F)F)ccc1-c1nccc2cc(S(=O)(=O)Nc3nccs3)ccc12` [Example 226, METHYL 2-(6-(N-(THIAZOL-2-YL)SULFAMOYL)ISOQUINOLIN-1-YL)-5-(TRIFLUOROMETHYL)BENZIMIDATE] are 90 nM and 600 nM.

A word on the IC50: it is the point on the concentration scale where inhibition reaches its midpoint.

The values above are taken from patent publication US9012443B2 (Amgen Inc., priority 2011, dated 2015).
